Active and inactive are the calls of the source. No cut-off for these calls is given here.
Assays:
[1] = molecular target: Methionine aminopeptidase 2 (Homo sapiens, UniProt P50579); assay: Biochemical activity-MetAP2 using Co
[2] = test system: Tyrosine-protein kinase ABL1 (Homo sapiens), P00519 [T315I]; settings: Compound concentration 1000.0 nM
[3] = molecular target: Tyrosine-protein kinase ABL1 (Homo sapiens) (UniProt P00519); settings: Compound concentration 1000.0 nM
[4] = molecular target: Activin receptor type-2B (Homo sapiens) (UniProt Q13705); settings: Compound concentration 1000.0 nM
Sequence of Activin receptor type-2B (Homo sapiens) (Q13705 whole entry): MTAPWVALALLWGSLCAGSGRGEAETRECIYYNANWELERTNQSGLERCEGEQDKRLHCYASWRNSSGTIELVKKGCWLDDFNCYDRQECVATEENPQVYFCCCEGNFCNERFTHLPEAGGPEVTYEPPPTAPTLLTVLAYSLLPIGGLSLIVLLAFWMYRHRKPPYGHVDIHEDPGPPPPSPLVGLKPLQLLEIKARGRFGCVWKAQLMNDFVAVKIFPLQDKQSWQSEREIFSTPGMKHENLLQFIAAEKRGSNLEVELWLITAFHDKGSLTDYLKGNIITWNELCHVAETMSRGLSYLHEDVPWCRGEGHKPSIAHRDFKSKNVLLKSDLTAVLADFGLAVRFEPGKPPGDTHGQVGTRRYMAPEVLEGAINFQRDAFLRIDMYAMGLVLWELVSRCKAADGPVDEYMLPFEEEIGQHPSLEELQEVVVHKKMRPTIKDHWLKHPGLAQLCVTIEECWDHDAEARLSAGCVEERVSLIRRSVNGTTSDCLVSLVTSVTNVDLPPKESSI

[5] = molecular target: Atypical kinase COQ8B, mitochondrial (Homo sapiens) (UniProt Q96D53); settings: Compound concentration 1000.0 nM
Sequence of Atypical kinase COQ8B, mitochondrial (Homo sapiens) (Q96D53 whole entry): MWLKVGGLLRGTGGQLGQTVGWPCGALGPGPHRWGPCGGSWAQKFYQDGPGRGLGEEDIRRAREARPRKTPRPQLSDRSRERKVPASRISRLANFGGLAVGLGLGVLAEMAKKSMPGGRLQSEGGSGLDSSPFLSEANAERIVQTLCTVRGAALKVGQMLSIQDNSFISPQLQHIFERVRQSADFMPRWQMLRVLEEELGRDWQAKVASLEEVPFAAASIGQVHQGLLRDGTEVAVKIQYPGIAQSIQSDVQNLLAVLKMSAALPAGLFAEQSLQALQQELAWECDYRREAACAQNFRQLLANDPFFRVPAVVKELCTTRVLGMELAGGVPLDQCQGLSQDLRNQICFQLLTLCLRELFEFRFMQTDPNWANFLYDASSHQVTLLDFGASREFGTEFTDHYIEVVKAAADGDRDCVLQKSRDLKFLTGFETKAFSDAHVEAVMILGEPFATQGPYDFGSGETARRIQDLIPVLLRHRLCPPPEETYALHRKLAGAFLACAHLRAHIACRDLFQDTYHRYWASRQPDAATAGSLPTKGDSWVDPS

[6] = molecular target: Calcium/calmodulin-dependent protein kinase kinase 2 (Homo sapiens) (UniProt Q96RR4); settings: Compound concentration 1000.0 nM
[7] = molecular target: Casein kinase I isoform delta (Homo sapiens) (UniProt P48730); settings: Compound concentration 1000.0 nM
[8] = molecular target: Death-associated protein kinase 1 (Homo sapiens) (UniProt P53355); settings: Compound concentration 1000.0 nM
Sequence of Death-associated protein kinase 1 (Homo sapiens) (P53355 whole entry, looked up): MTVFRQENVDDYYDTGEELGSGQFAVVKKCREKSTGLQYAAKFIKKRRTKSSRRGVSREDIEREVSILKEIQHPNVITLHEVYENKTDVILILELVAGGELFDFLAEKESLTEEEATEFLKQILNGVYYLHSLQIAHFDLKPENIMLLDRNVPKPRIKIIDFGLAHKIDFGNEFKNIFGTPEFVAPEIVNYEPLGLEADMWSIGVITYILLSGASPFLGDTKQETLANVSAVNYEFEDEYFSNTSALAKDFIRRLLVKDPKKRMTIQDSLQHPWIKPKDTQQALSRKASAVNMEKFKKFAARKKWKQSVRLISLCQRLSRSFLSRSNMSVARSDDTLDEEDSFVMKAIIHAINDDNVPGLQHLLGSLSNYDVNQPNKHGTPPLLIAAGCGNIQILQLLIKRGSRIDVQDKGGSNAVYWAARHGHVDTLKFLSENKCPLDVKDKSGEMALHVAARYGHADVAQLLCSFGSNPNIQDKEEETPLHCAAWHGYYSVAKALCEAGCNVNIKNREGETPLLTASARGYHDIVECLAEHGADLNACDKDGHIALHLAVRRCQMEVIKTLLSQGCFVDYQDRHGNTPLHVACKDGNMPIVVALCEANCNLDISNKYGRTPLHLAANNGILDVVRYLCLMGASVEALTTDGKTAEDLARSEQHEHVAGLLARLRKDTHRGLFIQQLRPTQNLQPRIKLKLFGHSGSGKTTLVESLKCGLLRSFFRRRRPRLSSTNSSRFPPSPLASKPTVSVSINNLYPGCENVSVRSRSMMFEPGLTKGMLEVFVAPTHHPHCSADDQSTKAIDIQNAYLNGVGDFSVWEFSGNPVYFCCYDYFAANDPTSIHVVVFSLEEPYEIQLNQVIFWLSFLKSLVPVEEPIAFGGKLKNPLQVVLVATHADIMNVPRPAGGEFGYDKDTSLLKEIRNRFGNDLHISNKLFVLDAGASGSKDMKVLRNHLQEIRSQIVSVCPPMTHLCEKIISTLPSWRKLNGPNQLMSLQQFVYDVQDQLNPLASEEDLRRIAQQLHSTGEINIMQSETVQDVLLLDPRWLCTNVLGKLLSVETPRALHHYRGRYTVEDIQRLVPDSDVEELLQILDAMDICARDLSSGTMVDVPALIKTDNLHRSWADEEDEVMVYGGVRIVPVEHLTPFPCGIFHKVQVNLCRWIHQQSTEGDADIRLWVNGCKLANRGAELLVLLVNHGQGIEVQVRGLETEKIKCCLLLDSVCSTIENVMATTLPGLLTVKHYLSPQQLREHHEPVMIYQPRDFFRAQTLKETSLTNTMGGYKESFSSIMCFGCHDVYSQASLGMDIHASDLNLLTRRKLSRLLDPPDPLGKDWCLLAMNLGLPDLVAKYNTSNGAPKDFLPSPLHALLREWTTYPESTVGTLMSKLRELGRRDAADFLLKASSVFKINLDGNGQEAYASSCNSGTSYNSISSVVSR

[9] = molecular target: Death-associated protein kinase 3 (Homo sapiens) (UniProt O43293); settings: Compound concentration 1000.0 nM
[10] = test system: Epidermal growth factor receptor (Homo sapiens), P00533 [L858R,T790M]; settings: Compound concentration 1000.0 nM
[11] = molecular target: Vascular endothelial growth factor receptor 1 (Homo sapiens) (UniProt P17948); settings: Compound concentration 1000.0 nM
[12] = test system: Receptor-type tyrosine-protein kinase FLT3 (Homo sapiens), P36888 [K663Q]; settings: Compound concentration 1000.0 nM
[13] = molecular target: G protein-coupled receptor kinase 4 (Homo sapiens) (UniProt P32298); settings: Compound concentration 1000.0 nM
Sequence of G protein-coupled receptor kinase 4 (Homo sapiens) (P32298 whole entry, looked up): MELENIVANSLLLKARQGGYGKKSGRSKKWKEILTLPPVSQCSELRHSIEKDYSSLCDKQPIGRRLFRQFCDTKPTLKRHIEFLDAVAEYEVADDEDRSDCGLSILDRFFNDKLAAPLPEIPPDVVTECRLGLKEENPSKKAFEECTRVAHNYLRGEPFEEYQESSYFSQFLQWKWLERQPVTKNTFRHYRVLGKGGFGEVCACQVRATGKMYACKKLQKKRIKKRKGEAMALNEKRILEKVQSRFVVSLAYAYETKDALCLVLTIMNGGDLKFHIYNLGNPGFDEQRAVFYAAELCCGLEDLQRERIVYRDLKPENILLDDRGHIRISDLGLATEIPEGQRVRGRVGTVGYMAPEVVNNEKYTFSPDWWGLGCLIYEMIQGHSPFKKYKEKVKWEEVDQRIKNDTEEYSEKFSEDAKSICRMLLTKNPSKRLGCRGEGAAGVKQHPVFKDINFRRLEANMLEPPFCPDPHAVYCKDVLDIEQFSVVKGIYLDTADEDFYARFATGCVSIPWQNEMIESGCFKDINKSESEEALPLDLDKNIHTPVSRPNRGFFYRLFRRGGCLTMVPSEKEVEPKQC

[14] = molecular target: Glycogen synthase kinase-3 beta (Homo sapiens) (UniProt P49841); settings: Compound concentration 1000.0 nM
[15] = molecular target: Serine/threonine-protein kinase STK11 (Homo sapiens) (UniProt Q15831); settings: Compound concentration 1000.0 nM
[16] = test system: Leucine-rich repeat serine/threonine-protein kinase 2 (Homo sapiens), Q5S007 [G2019S]; settings: Compound concentration 1000.0 nM
[17] = molecular target: MAP kinase-activated protein kinase 2 (Homo sapiens) (UniProt P49137); settings: Compound concentration 1000.0 nM
[18] = molecular target: Hepatocyte growth factor receptor (Homo sapiens) (UniProt P08581); settings: Compound concentration 1000.0 nM
[19] = molecular target: Misshapen-like kinase 1 (Homo sapiens) (UniProt Q8N4C8); settings: Compound concentration 1000.0 nM
[20] = molecular target: Myosin light chain kinase (Homo sapiens) (UniProt Q32MK0); settings: Compound concentration 1000.0 nM
[21] = molecular target: Serine/threonine-protein kinase 3 (Homo sapiens) (UniProt Q13188); settings: Compound concentration 1000.0 nM
[22] = molecular target: Serine/threonine-protein kinase Nek1 (Homo sapiens) (UniProt Q96PY6); settings: Compound concentration 1000.0 nM
[23] = molecular target: Serine/threonine-protein kinase PAK 6 (Homo sapiens) (UniProt Q9NQU5); settings: Compound concentration 1000.0 nM
[24] = molecular target: Cyclin-dependent kinase 17 (Homo sapiens) (UniProt Q00537); settings: Compound concentration 1000.0 nM
[25] = molecular target: Cyclin-dependent kinase 18 (Homo sapiens) (UniProt Q07002); settings: Compound concentration 1000.0 nM
[26] = molecular target: Calcium-dependent protein kinase 1 (Plasmodium falciparum) (UniProt P62344); settings: Compound concentration 1000.0 nM
[27] = test system: Phosphatidylinositol 4,5-bisphosphate 3-kinase catalytic subunit alpha isoform (Homo sapiens), P42336 [C420R]; settings: Compound concentration 1000.0 nM
[28] = test system: Phosphatidylinositol 4,5-bisphosphate 3-kinase catalytic subunit alpha isoform (Homo sapiens), P42336 [M1043I]; settings: Compound concentration 1000.0 nM
[29] = molecular target: Phosphatidylinositol 4-phosphate 5-kinase type-1 gamma (Homo sapiens) (UniProt O60331); settings: Compound concentration 1000.0 nM
[30] = molecular target: Phosphatidylinositol 5-phosphate 4-kinase type-2 beta (Homo sapiens) (UniProt P78356); settings: Compound concentration 1000.0 nM
[31] = molecular target: cAMP-dependent protein kinase catalytic subunit alpha (Homo sapiens) (UniProt P17612); settings: Compound concentration 1000.0 nM
[32] = molecular target: cAMP-dependent protein kinase catalytic subunit beta (Homo sapiens) (UniProt P22694); settings: Compound concentration 1000.0 nM
[33] = molecular target: Serine/threonine-protein kinase N2 (Homo sapiens) (UniProt Q16513); settings: Compound concentration 1000.0 nM
[34] = molecular target: Protein kinase C theta type (Homo sapiens) (UniProt Q04759); settings: Compound concentration 1000.0 nM
Sequence of Protein kinase C theta type (Homo sapiens) (Q04759 whole entry, looked up): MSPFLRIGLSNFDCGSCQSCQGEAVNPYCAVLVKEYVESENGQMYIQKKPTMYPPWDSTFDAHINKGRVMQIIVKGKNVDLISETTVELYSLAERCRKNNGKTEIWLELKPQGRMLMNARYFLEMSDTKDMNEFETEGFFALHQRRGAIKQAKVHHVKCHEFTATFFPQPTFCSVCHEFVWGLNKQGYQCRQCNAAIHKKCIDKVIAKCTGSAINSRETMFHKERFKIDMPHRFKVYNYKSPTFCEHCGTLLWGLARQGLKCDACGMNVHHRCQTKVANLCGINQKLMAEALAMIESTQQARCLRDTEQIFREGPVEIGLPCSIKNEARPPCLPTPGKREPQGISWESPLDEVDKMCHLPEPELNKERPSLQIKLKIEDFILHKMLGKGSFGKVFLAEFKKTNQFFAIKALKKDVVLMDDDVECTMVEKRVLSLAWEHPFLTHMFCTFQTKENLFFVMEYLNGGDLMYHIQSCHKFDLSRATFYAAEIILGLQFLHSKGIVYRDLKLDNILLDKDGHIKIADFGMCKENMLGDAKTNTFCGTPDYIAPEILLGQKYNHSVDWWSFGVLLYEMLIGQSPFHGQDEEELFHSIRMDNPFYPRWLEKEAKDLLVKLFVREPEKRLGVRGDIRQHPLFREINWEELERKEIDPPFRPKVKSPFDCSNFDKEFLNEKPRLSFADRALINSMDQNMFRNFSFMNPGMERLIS

[35] = molecular target: Serine/threonine-protein kinase Sgk1 (Homo sapiens) (UniProt O00141); settings: Compound concentration 1000.0 nM
[36] = molecular target: Serine/threonine-protein kinase tousled-like 2 (Homo sapiens) (UniProt Q86UE8); settings: Compound concentration 1000.0 nM
[37] = molecular target: TRAF2 and NCK-interacting protein kinase (Homo sapiens) (UniProt Q9UKE5); settings: Compound concentration 1000.0 nM
[38] = molecular target: Activated CDC42 kinase 1 (Homo sapiens) (UniProt Q07912); settings: Compound concentration 1000.0 nM
[39] = molecular target: Serine/threonine-protein kinase TNNI3K (Homo sapiens) (UniProt Q59H18); settings: Compound concentration 1000.0 nM
[40] = molecular target: Dual specificity protein kinase TTK (Homo sapiens) (UniProt P33981); settings: Compound concentration 1000.0 nM
[41] = molecular target: 5-hydroxytryptamine receptor 1B (Homo sapiens) (UniProt P28222); settings: Compound concentration 10.0 uM
[42] = molecular target: Histamine H1 receptor (Homo sapiens) (UniProt P35367); settings: Compound concentration 10.0 uM
Sequence of Histamine H1 receptor (Homo sapiens) (P35367 whole entry): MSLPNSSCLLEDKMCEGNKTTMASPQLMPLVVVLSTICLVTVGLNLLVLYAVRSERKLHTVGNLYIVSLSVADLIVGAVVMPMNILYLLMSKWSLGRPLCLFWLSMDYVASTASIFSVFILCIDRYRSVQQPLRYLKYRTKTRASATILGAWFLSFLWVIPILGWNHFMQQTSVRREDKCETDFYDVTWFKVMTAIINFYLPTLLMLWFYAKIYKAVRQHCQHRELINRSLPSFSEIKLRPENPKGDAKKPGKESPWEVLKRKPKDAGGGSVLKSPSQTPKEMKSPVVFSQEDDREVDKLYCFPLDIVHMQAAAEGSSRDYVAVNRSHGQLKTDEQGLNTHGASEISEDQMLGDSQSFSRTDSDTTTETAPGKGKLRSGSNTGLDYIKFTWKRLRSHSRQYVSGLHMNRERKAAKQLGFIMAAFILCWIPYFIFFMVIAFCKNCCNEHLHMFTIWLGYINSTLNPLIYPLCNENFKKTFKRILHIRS

[43] = molecular target: Histamine H4 receptor (Homo sapiens) (UniProt Q9H3N8); settings: Compound concentration 10.0 uM
Sequence of Histamine H4 receptor (Homo sapiens) (Q9H3N8 whole entry): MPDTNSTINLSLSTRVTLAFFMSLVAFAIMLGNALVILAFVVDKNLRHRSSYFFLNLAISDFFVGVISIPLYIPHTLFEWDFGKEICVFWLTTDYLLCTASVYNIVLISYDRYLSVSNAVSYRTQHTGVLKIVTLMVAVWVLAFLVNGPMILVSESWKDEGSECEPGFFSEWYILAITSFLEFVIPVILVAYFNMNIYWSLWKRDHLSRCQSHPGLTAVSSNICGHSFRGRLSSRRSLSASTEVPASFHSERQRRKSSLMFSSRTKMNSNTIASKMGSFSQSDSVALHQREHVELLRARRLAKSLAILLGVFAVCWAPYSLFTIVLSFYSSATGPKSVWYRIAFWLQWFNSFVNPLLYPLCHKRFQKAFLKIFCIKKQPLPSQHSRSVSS

[44] = molecular target: Alpha-2C adrenergic receptor (Homo sapiens) (UniProt P18825); settings: Compound concentration 10.0 uM
[45] = molecular target: Sigma intracellular receptor 2 (Homo sapiens) (UniProt Q5BJF2); settings: Compound concentration 10.0 uM
Sequence of Sigma intracellular receptor 2 (Homo sapiens) (Q5BJF2 whole entry): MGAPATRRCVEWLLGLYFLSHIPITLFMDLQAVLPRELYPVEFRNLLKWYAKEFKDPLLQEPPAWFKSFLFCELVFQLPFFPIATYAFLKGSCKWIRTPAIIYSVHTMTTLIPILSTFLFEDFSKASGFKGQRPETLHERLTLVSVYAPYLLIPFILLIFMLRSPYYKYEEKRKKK

Cc1nc(N2CC[C@@H](O)C2)ncc1-c1cc(C(F)(F)F)cc2[nH]ncc12 [TP-004]
IC50 [1]: 31 nM (active) | residual activity [2]: 78% | residual activity [3]: 61% | residual activity [4]: 79% | residual activity [5]: 100% | residual activity [6]: 100% | residual activity [7]: 95% | residual activity [8]: 89% | residual activity [9]: 100% | residual activity [10]: 73% | residual activity [11]: 100% | residual activity [12]: 89% | residual activity [13]: 86% | residual activity [14]: 65% | residual activity [15]: 100% | residual activity [16]: 67% | residual activity [17]: 95% | residual activity [18]: 100% | residual activity [19]: 61% | residual activity [20]: 98% | residual activity [21]: 80% | residual activity [22]: 100% | residual activity [23]: 100% | residual activity [24]: 91% | residual activity [25]: 100% | residual activity [26]: 100% | residual activity [27]: 82% | residual activity [28]: 100% | residual activity [29]: 100% | residual activity [30]: 100% | residual activity [31]: 83% | residual activity [32]: 79% | residual activity [33]: 72% | residual activity [34]: 100% | residual activity [35]: 49% | residual activity [36]: 100% | residual activity [37]: 100% | residual activity [38]: 90% | residual activity [39]: 87% | residual activity [40]: 100% | inhibition [41]: 22.3% | inhibition [42]: 0.239% | inhibition [43]: 12% | inhibition [44]: 2.18% | inhibition [45]: 45.5%

Source: ChEMBL document CHEMBL4507303, “Data for DCP probe TP-004” (2021)
